From PubChem BioAssay AID1671241

Target: Macrophage colony-stimulating factor 1 receptor (Homo sapiens) (UniProt P07333)
Assay: CSF1R kinase inhibitors, dose response, biochemical, Z'-LYTE, FRET, protease-coupled, direct format (AID 1671241)
Details: Z'-LYTE FRET kinase assay

Chain of Macrophage colony-stimulating factor 1 receptor (Homo sapiens) (P07333 whole entry, looked up): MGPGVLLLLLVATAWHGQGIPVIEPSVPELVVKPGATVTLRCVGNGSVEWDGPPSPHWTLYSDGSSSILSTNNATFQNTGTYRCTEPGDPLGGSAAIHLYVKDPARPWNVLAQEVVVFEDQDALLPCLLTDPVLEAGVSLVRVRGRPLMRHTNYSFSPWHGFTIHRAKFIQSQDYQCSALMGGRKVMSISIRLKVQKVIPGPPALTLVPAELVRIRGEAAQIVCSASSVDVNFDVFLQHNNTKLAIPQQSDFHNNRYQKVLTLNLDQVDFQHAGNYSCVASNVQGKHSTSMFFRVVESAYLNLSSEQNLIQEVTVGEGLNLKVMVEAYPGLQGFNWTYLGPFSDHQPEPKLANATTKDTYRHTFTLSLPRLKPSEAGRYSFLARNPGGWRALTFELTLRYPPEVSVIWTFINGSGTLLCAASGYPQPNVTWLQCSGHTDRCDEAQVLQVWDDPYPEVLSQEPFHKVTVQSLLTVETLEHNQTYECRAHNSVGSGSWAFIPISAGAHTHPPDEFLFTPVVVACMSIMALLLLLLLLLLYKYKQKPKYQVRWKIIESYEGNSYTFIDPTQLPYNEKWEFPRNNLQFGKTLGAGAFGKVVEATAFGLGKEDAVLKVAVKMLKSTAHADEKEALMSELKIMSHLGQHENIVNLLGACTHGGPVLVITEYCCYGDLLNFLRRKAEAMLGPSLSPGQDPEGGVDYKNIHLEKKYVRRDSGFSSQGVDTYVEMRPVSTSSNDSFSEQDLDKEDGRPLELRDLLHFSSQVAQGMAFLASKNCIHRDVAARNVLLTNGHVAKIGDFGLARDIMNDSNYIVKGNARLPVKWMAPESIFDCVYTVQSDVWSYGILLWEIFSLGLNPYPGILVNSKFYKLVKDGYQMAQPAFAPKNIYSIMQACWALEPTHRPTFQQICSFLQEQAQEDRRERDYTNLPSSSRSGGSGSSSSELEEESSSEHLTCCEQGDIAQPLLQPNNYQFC

IC50: 6.02 µM
Compound: COc1cc2ncnc(Nc3cccc(Cl)c3)c2cc1OC
